The values that follow come from ChEMBL document CHEMBL5260810, “Inhibition of bromodomain-containing protein 9 for the prevention of epigenetically-defined drug resistance” (Bioorg Med Chem Lett, 2017).

Each structure is given as a SMILES string.

Chain of D(2) dopamine receptor (Homo sapiens) (P14416 whole entry): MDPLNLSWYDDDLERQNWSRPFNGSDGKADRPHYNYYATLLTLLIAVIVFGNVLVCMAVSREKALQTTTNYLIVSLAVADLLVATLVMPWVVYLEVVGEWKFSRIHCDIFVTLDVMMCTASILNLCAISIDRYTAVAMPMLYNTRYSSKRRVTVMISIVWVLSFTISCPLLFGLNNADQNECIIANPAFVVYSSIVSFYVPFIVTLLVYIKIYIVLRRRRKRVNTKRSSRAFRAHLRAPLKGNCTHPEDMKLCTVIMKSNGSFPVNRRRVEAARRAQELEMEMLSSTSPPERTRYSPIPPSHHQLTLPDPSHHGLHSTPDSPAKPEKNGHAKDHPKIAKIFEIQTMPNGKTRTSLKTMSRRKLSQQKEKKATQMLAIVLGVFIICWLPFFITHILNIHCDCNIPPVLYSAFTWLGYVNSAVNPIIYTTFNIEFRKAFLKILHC
Chain of D(1A) dopamine receptor (Homo sapiens) (P21728 whole entry): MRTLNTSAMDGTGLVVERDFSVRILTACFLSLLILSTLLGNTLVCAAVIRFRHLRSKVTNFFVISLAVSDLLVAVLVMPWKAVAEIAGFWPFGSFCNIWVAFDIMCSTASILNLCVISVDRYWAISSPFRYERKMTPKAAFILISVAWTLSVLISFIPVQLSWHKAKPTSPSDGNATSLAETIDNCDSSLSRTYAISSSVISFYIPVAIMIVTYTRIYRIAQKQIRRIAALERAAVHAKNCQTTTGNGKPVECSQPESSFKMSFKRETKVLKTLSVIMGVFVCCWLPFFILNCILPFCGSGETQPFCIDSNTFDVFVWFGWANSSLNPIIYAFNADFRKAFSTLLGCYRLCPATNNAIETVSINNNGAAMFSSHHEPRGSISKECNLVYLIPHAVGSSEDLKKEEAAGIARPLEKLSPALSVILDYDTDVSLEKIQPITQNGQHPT

System in one assay: not listed separately
As to the kind of experiment: Cytotoxicity against human HNT-34 cells measured after 8 days. In kind it is functional, cell-based. Conditions: HNT-34, 192 h.
In turn, `C/C=C/Cn1cc(-c2ccc(C(=O)N3CCOCC3)cc2)c2cc[nH]c2c1=O` yielded an IC50 of 8.35 µM.

The next assay has as its system LP-1. As to the kind of experiment: Cytotoxicity against human LP-1 cells measured after 8 days. Conditions: LP-1, 192 h. It is filed as functional, cell-based.
The compound `C/C=C/Cn1cc(-c2ccc(C(=O)N3CCOCC3)cc2)c2cc[nH]c2c1=O` displayed an IC50 of 20 µM.

The subject of the next assay is NCI-H1838. As to the kind of experiment: Cytotoxicity against human NCI-H1838 cells measured after 8 days. Conditions: NCI-H1838, 192 h. It is filed as functional, cell-based.
On to `C/C=C/Cn1cc(-c2ccc(C(=O)N3CCOCC3)cc2)c2cc[nH]c2c1=O`, for which the IC50 was found to be 20 µM.

Another assay relates to NCI-H1666. The assay is described as follows: Cytotoxicity against human NCI-H1666 cells measured after 8 days. Conditions: NCI-H1666, 192 h. In kind it is functional, cell-based.
The compound `C/C=C/Cn1cc(-c2ccc(C(=O)N3CCOCC3)cc2)c2cc[nH]c2c1=O` showed a concentration for half-maximal inhibition (IC50) of 19.5 µM.

For another assay, the system named is NCI-H146. The assay is described as follows: Cytotoxicity against human NCI-H146 cells measured after 8 days. In kind it is functional, cell-based. Conditions: NCI-H146, 192 h.
Compound `C/C=C/Cn1cc(-c2ccc(C(=O)N3CCOCC3)cc2)c2cc[nH]c2c1=O` yielded a half-inhibitory concentration (IC50) of 20 µM.

System in another assay: not listed separately
As to the kind of experiment: Cytotoxicity against human MOR cells measured after 8 days. In kind it is functional, cell-based. Conditions: 192 h.
For `C/C=C/Cn1cc(-c2ccc(C(=O)N3CCOCC3)cc2)c2cc[nH]c2c1=O`, inhibition was half-maximal at 20 µM (IC50).

System in another assay: not listed separately
As to the kind of experiment: Cytotoxicity against human NCI-H2106 cells measured after 8 days. In kind it is functional, cell-based. Conditions: NCI-H2106, 192 h.
Take `C/C=C/Cn1cc(-c2ccc(C(=O)N3CCOCC3)cc2)c2cc[nH]c2c1=O`: the IC50 was found to be 20 µM.

Another assay deals with Raji. As to the kind of experiment: Cytotoxicity against human Raji cells measured after 8 days. It is filed as functional, cell-based. Conditions: 192 h.
Compound `C/C=C/Cn1cc(-c2ccc(C(=O)N3CCOCC3)cc2)c2cc[nH]c2c1=O` yielded an IC50 of 20 µM.

The next assay deals with NCI-H522. As to the kind of experiment: Cytotoxicity against human NCI-H522 cells measured after 8 days. In kind it is functional, cell-based. Conditions: NCI-H522, 192 h.
Compound `C/C=C/Cn1cc(-c2ccc(C(=O)N3CCOCC3)cc2)c2cc[nH]c2c1=O` gave an IC50 of 20 µM.

System in a further assay: not listed separately
The assay is described as follows: Cytotoxicity against human VMRC-LCD cells measured after 8 days. Conditions: 192 h. In kind it is functional, cell-based.
In turn, `C/C=C/Cn1cc(-c2ccc(C(=O)N3CCOCC3)cc2)c2cc[nH]c2c1=O` came in with an IC50 of 20 µM.

The next assay concerns Granta-519. The assay is described as follows: Cytotoxicity against human Granta-519 cells measured after 8 days. In kind it is functional, cell-based. Conditions: Granta-519, 192 h.
In the case of `C/C=C/Cn1cc(-c2ccc(C(=O)N3CCOCC3)cc2)c2cc[nH]c2c1=O`, half-maximal inhibition (IC50) required 20 µM.

For another assay, the system named is MDA-MB-157. The assay is described as follows: Cytotoxicity against human MDA-MB-157 cells measured after 8 days. Conditions: MDA-MB-157, 192 h. In kind it is functional, cell-based.
Take `C/C=C/Cn1cc(-c2ccc(C(=O)N3CCOCC3)cc2)c2cc[nH]c2c1=O`: the IC50 amounted to 20 µM.

In a further assay the test system is SW948. As to the kind of experiment: Cytotoxicity against human SW948 cells measured after 8 days. Conditions: SW948, 192 h. In kind it is functional, cell-based.
`C/C=C/Cn1cc(-c2ccc(C(=O)N3CCOCC3)cc2)c2cc[nH]c2c1=O` had an IC50 of 20 µM.

The subject of a further assay is WiDr. As to the kind of experiment: Cytotoxicity against human WiDr cells measured after 8 days. It is filed as functional, cell-based. Conditions: 192 h.
Turning to `C/C=C/Cn1cc(-c2ccc(C(=O)N3CCOCC3)cc2)c2cc[nH]c2c1=O`, the IC50 came to 20 µM.

The subject of the next assay is SK-MEL-28. As to the kind of experiment: Cytotoxicity against human SK-MEL-28 cells measured after 8 days. Conditions: SK-MEL-28, 192 h. It is filed as functional, cell-based.
As for `C/C=C/Cn1cc(-c2ccc(C(=O)N3CCOCC3)cc2)c2cc[nH]c2c1=O`, the half-inhibitory concentration (IC50) turned out to be 20 µM.

The next assay relates to GTL 16 cell line. The assay is described as follows: Cytotoxicity against human GTL 16 cell line measured after 8 days. It is filed as functional, cell-based. Conditions: GTL 16, 192 h.
In turn, `C/C=C/Cn1cc(-c2ccc(C(=O)N3CCOCC3)cc2)c2cc[nH]c2c1=O` gave an IC50 of 20 µM.

The test system of another assay is A549. The assay is described as follows: Cytotoxicity against human A549 cells measured after 8 days. It is filed as functional, cell-based. Conditions: A549, 192 h.
`C/C=C/Cn1cc(-c2ccc(C(=O)N3CCOCC3)cc2)c2cc[nH]c2c1=O`: the IC50 amounted to 20 µM.

For another assay, the system named is ABC-1. As to the kind of experiment: Cytotoxicity against human ABC-1 cells measured after 8 days. It is filed as functional, cell-based. Conditions: ABC-1, 192 h.
`C/C=C/Cn1cc(-c2ccc(C(=O)N3CCOCC3)cc2)c2cc[nH]c2c1=O` yielded a 50% inhibitory concentration (IC50) of 20 µM.

The test system of another assay is BEN. The assay is described as follows: Cytotoxicity against human BEN cells measured after 8 days. In kind it is functional, cell-based. Conditions: 192 h.
`C/C=C/Cn1cc(-c2ccc(C(=O)N3CCOCC3)cc2)c2cc[nH]c2c1=O`: inhibition was half-maximal at 20 µM (IC50).

The subject of a further assay is HCC44. As to the kind of experiment: Cytotoxicity against human HCC44 cells measured after 8 days. It is filed as functional, cell-based. Conditions: HCC44, 192 h.
`C/C=C/Cn1cc(-c2ccc(C(=O)N3CCOCC3)cc2)c2cc[nH]c2c1=O` displayed an IC50 of 20 µM.

A further assay concerns HCC827. The assay is described as follows: Cytotoxicity against human HCC827 cells measured after 8 days. In kind it is functional, cell-based. Conditions: HCC827, 192 h.
On to `C/C=C/Cn1cc(-c2ccc(C(=O)N3CCOCC3)cc2)c2cc[nH]c2c1=O`, for which the IC50 came out at 20 µM.

For another assay, the target named is Bromodomain-containing protein 3 (Homo sapiens, UniProt Q15059). As to the kind of experiment: Binding affinity to human partial length BRD3 bromodomain 2 (G306 to P416 residues) expressed in bacterial expression system by BROMOscan assay.
Chain of Bromodomain-containing protein 3 (Q15059 whole entry, the tested form may be a part): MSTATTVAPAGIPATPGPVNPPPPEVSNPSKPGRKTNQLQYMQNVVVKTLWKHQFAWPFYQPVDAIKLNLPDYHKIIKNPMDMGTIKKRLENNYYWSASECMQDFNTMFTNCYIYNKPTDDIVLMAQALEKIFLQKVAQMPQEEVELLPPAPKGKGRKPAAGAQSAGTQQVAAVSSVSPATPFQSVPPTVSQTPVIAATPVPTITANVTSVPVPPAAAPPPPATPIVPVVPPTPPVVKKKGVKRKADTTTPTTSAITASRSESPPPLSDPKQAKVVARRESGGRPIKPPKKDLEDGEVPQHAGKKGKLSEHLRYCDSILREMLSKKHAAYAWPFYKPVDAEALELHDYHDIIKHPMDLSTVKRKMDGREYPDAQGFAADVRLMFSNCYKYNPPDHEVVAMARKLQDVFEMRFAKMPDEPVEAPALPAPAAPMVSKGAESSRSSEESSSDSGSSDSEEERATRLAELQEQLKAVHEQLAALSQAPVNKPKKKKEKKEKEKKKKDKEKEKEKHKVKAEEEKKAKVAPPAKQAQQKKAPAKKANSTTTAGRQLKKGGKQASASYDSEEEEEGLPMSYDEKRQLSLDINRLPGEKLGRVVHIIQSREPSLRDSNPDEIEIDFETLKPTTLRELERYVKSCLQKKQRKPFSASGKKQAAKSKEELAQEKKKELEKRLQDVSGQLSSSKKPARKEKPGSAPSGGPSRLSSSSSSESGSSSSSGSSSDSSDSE
Details: not given
`C/C=C/Cn1cc(-c2ccc(C(=O)N3CCOCC3)cc2)c2cc[nH]c2c1=O` showed a Kd of 4.4 µM.
Consider `C/C=C/Cn1cc(-c2cc(OC)c(C(C)(C)O)cc2OC)c2cc(C)[nH]c2c1=O`, for which the Kd is above 10 µM.

Another assay deals with SWI/SNF-related matrix-associated actin-dependent regulator of chromatin subfamily A member 2 (Homo sapiens, UniProt P51531). As to the kind of experiment: Binding affinity to human partial length SMARCA2 (S1377 to Q1486 residues) expressed in bacterial expression system by BROMOscan assay.
Chain of SWI/SNF-related matrix-associated actin-dependent regulator of chromatin subfamily A member 2 (P51531 whole entry, the tested form may be a part): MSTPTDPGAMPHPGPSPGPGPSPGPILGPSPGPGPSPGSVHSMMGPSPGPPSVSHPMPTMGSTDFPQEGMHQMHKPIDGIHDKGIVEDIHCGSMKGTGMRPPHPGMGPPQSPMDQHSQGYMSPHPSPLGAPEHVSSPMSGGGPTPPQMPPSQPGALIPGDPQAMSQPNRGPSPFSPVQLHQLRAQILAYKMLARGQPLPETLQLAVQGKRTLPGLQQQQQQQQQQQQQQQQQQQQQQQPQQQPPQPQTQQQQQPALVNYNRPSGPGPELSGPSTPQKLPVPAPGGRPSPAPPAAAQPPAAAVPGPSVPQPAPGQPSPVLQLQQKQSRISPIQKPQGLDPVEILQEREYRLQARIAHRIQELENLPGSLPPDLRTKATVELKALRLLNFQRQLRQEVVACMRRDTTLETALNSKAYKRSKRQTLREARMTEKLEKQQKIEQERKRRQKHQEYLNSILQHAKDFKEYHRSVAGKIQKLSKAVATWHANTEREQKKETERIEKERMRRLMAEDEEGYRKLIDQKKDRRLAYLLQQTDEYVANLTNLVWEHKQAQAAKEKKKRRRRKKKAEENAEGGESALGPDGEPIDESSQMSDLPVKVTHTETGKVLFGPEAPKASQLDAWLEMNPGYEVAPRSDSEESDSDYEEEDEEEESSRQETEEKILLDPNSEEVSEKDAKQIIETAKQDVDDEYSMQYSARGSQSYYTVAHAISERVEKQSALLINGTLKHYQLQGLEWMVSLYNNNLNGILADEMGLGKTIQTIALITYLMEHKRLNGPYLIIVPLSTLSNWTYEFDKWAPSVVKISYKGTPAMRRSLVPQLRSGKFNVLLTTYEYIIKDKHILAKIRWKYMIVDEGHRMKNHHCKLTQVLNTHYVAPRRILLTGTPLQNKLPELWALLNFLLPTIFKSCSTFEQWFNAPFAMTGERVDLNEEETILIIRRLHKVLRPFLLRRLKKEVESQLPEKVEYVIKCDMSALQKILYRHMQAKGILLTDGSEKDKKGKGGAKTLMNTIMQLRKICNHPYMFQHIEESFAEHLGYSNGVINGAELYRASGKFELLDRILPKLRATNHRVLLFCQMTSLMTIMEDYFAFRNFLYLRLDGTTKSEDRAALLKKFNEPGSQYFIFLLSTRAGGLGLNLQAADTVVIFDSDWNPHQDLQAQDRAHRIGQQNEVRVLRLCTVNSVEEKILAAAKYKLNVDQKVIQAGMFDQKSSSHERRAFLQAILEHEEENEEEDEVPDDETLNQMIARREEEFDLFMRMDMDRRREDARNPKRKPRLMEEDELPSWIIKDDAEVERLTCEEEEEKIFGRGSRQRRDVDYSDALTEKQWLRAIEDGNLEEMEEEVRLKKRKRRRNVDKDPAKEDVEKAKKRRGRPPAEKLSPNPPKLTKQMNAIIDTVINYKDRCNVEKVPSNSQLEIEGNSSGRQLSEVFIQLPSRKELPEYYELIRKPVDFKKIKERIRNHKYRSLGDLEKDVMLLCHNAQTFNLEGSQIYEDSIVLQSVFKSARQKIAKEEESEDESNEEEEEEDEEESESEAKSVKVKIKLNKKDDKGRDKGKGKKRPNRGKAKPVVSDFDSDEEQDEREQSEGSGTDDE
Details: not given
The compound `C/C=C/Cn1cc(-c2ccc(C(=O)N3CCOCC3)cc2)c2cc[nH]c2c1=O` had a dissociation constant (Kd) above 10 µM.
On the same count and under the same terms, the figure for `C/C=C/Cn1cc(-c2cc(OC)c(C(C)(C)O)cc2OC)c2cc(C)[nH]c2c1=O` is above 10 µM.

The target of the next assay is Cyclin-dependent kinase 5/CDK5 activator 1 (Homo sapiens) (UniProt Q00535+Q15078). The assay is described as follows: Inhibition of CDK5/p25 (unknown origin) at 1 uM relative to control. It is filed as protein-complex assay.
Chain of Cyclin-dependent kinase 5/CDK5 activator 1 (Homo sapiens) (Q00535 whole entry): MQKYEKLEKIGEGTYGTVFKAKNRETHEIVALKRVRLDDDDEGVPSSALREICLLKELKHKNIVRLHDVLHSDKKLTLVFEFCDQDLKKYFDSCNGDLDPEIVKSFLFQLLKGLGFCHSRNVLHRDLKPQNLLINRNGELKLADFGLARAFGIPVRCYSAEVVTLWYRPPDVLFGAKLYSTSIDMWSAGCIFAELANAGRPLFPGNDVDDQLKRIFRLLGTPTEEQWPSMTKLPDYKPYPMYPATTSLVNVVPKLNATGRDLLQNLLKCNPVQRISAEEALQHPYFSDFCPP
Chain of Cyclin-dependent kinase 5/CDK5 activator 1 (Homo sapiens) (Q15078 99-307 partner limits assumed): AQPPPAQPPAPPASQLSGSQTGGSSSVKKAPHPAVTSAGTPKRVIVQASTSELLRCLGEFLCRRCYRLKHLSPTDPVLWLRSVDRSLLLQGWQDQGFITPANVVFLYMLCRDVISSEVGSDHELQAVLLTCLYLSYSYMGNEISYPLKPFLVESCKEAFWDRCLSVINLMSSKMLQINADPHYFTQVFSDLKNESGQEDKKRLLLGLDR
Details: not given
With `C/C=C/Cn1cc(-c2ccc(C(=O)N3CCOCC3)cc2)c2cc[nH]c2c1=O`, the inhibition was -1.5%.

A further assay concerns the target T1, Ephrin type-A receptor 1 (Homo sapiens) (UniProt P21709).
T1 sequence (whole entry): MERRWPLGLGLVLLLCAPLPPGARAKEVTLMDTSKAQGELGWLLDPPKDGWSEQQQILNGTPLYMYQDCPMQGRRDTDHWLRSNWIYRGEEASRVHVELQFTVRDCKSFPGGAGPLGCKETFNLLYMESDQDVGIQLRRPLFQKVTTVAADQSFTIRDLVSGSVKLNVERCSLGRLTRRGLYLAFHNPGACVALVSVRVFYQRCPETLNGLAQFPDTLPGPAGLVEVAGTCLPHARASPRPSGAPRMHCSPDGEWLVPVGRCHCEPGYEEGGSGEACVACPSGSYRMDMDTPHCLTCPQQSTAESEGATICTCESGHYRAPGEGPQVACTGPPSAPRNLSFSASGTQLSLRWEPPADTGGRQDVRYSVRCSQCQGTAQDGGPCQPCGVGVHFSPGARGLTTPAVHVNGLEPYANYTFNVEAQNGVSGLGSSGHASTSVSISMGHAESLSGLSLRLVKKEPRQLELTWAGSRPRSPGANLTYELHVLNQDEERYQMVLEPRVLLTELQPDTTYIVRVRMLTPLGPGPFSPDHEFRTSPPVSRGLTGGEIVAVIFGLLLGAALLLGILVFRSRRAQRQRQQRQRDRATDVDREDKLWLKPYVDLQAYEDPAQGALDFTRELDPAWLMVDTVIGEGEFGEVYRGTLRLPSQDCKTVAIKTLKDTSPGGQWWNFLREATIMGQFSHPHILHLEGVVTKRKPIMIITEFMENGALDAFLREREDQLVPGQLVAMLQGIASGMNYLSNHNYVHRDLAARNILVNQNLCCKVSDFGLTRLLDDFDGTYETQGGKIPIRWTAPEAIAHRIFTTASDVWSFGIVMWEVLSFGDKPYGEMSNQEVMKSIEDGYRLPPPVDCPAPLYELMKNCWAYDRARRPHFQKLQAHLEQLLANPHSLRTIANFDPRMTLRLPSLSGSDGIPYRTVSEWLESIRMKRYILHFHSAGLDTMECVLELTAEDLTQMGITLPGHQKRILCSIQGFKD
The assay is described as follows: Inhibition of EphA1 (unknown origin) at 1 uM relative to control.
Details: not given
Take `C/C=C/Cn1cc(-c2ccc(C(=O)N3CCOCC3)cc2)c2cc[nH]c2c1=O`: the inhibition turned out to be 0.8%.

Another assay addresses D(1A) dopamine receptor (Homo sapiens) (UniProt P21728). The assay is described as follows: Displacement of [3H]-SCH 23390 from human recombinant dopamine D1 receptor at 10 uM by scintillation counting 60 mins analysis relative to control.
Details: not given
(In general: In a radioligand displacement assay an active substance lowers the binding of a labelled ligand.)
As to `C/C=C/Cn1cc(-c2ccc(C(=O)N3CCOCC3)cc2)c2cc[nH]c2c1=O`, the Activity came out at 6%.

The next assay addresses D(2) dopamine receptor (Homo sapiens) (UniProt P14416). As to the kind of experiment: Displacement of [3H]7-OH-DPAT from human recombinant dopamine D2S receptor at 10 uM after 60 mins by scintillation counting analysis relative to control.
Details: not given
With `C/C=C/Cn1cc(-c2ccc(C(=O)N3CCOCC3)cc2)c2cc[nH]c2c1=O`, the Activity was -3%.

The next assay concerns the target T2, 5-hydroxytryptamine receptor 1A (Homo sapiens) (UniProt P08908).
T2 sequence (whole entry): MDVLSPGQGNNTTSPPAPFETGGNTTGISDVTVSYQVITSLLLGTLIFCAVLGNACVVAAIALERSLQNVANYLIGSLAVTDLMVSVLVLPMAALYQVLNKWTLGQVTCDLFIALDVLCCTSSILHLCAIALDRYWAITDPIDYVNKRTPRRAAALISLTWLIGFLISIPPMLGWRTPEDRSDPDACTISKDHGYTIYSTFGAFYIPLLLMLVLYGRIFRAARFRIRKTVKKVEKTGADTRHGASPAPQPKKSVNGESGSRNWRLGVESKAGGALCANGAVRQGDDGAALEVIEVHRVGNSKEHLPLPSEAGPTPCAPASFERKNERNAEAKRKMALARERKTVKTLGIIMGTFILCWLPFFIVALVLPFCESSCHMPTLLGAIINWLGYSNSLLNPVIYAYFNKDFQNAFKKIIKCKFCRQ
The assay is described as follows: Displacement of [3H]8-OH-DPAT from recombinant human 5-HT1A receptor at 10 uM after 60 mins by scintillation counting analysis relative to control.
Details: not given
Consider `C/C=C/Cn1cc(-c2ccc(C(=O)N3CCOCC3)cc2)c2cc[nH]c2c1=O`, for which the Activity is 7%.

One may read the IC50 as the concentration that gives 50% inhibition. A high value points to weaker potency. A word on the Kd: it is a measure of binding affinity in units of concentration. Read a low Kd as a tighter complex. For orientation: inhibition means the drop in the measured response relative to a control, in per cent.
